Assay: Stabilization of Vitamin C: spectral absorption at 265 nm after exposure to air with storage in the dark
Format: physicochemical
Conditions: Vitamin C combined with Nanotope AO7 (encapsulated AO7 1.00%, ascorbic acid 1.00% in water phase), phosphate buffer pH 6, exposure to air, 20° C.
Method: Aqueous solution of Vitamin C (concentration=40.5 mM), buffered at pH=6 (Phosphate buffer, previously evacuated and then flushed with Nitrogen to remove as much Oxygen as possible). a) Standalone Vitamin C: 0.7 mM b) Combination Vitamin C/Nanotope AO7: [table] Absorption measurement with Perkin Elmer Lambda 16; cuvette length d=0.1 cm Irradiation chamber Atlas CPS+; temperature of measurement=35° C. Spectral absorption of Vitamin C (Ascorbic Acid) at its maximum wavelength (Imax=265 nm); maximum extinction at time after exposure to air with storage in the dark. Experiments were done at 20° C.

protection of Vitamin C (maximum extinction at 265 nm): efficiently protected
Compound: O=C1O[C@H]([C@@H](O)CO)C(O)=C1O [Vitamin C, ascorbic acid]

— patent US20090258041A1, “Protection of Oxidizable Agents” (priority 2005, published 2009)
